Experimental data: PMC7450057, “Enhancing intracellular accumulation and target engagement of PROTACs with reversible covalent chemistry” (Nature Communications, 2020)
pIC50, pKd: −log10 of the molar value. Values joined by “and” are separate entries in the source; they are usually repeats but may differ in a detail not shown here. Equal values may be shown once.

How the values were obtained:
Mino = test: IC50 in MCL cell lines (Supplementary Table 2), Mino; details: for Cell Viability (%): Mino cells, replicate wells
full-length BTK protein = target: T1, full-length BTK protein (Homo sapiens, UniProt Q06187); test: BTK binding assay (Kd, Eurofins DiscoverX)
T1 construct: Kd was measured using the full-length BTK protein by Eurofins DiscoverX; T7 phage fusion or DNA tag for qPCR (generic vendor protocol); purchased Eurofins DiscoverX
T1 sequence (Q06187 whole entry, the tested form may be a part): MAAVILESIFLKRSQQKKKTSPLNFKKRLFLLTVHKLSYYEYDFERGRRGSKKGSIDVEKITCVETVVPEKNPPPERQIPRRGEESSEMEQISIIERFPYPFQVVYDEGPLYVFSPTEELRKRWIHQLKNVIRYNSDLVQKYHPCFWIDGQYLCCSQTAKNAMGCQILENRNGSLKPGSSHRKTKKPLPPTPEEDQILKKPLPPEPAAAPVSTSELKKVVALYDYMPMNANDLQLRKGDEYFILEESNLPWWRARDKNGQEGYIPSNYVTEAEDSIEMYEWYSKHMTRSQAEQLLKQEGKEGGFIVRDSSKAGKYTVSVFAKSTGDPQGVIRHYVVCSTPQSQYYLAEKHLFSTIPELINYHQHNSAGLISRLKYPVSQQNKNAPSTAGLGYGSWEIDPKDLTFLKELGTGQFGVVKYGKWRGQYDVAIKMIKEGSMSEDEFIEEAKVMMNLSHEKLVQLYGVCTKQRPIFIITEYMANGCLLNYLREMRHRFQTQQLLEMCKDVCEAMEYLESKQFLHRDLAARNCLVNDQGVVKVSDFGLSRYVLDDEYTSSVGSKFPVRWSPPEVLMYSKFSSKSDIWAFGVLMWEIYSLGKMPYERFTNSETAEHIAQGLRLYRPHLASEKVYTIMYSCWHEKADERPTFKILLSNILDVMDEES
Description: The dissociation equilibrium constant Kd was measured using the full-length BTK protein by Eurofins DiscoverX according to the following protocol: kinase-tagged T7 phage strains were prepared in an E. coli host derived from the BL21 strain. E. coli were grown to log-phase and infected with T7 phage and incubated with shaking at 32 °C until lysis. The lysates were centrifuged and filtered to remove cell debris. The remaining kinases were produced in HEK-293 cells and subsequently tagged with DNA for qPCR detection. […] The liganded beads were blocked with excess biotin and washed with blocking buffer (SeaBlock (Pierce), 1% BSA, 0.05% Tween 20, 1 mM DTT) to remove unbound ligand and to reduce non-specific binding. […] Test compounds were prepared as 111X stocks in 100% DMSO. […] The compounds were then diluted directly into the assays such that the final concentration of DMSO was 0.9%. All reactions performed in polypropylene 384-well plate. Each was a final volume of 0.02 mL. […] The kinase concentration in the eluates was measured by qPCR. For kinase-binding constant determination, an 11-point 3-fold serial dilution of each test compound was prepared in 100% DMSO at 100x final test concentration and subsequently diluted to 1x in the assay (final DMSO concentration = 1%). […] Binding constants (Kd values) were calculated with a standard dose-response curve using the Hill equation: Response=Background+Signal−Background/1+KdHillSlope/Dose^HillSlope
The Hill Slope was set to −1. Curves were fitted using a non-linear least square fit with the Levenberg-Marquardt algorithm.

NanoLuc-CRBN fusion = target: T2, NanoLuc-CRBN fusion (Homo sapiens, UniProt Q96SW2); test: NanoBRET CRBN in-cell target engagement assay; assay type: cell-based; details: for NanoBRET(%): Figure 3b
T2 construct: host or cells: HEK 293T/17
T2 sequence (Q96SW2 whole entry, the tested form may be a part): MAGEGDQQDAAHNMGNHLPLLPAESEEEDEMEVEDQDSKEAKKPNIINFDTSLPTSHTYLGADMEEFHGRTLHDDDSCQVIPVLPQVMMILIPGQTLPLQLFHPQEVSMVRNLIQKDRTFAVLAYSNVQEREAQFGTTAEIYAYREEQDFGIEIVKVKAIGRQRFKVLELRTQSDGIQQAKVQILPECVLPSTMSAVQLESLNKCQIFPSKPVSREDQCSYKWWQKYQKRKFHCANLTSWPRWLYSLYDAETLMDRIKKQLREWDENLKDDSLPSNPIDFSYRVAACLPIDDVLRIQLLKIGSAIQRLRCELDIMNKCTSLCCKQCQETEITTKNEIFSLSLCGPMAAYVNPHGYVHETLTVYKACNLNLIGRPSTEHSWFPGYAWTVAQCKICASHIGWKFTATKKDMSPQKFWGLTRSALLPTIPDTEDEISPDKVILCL
T2 sequence (Q16531 whole entry partner, the tested form may be a part): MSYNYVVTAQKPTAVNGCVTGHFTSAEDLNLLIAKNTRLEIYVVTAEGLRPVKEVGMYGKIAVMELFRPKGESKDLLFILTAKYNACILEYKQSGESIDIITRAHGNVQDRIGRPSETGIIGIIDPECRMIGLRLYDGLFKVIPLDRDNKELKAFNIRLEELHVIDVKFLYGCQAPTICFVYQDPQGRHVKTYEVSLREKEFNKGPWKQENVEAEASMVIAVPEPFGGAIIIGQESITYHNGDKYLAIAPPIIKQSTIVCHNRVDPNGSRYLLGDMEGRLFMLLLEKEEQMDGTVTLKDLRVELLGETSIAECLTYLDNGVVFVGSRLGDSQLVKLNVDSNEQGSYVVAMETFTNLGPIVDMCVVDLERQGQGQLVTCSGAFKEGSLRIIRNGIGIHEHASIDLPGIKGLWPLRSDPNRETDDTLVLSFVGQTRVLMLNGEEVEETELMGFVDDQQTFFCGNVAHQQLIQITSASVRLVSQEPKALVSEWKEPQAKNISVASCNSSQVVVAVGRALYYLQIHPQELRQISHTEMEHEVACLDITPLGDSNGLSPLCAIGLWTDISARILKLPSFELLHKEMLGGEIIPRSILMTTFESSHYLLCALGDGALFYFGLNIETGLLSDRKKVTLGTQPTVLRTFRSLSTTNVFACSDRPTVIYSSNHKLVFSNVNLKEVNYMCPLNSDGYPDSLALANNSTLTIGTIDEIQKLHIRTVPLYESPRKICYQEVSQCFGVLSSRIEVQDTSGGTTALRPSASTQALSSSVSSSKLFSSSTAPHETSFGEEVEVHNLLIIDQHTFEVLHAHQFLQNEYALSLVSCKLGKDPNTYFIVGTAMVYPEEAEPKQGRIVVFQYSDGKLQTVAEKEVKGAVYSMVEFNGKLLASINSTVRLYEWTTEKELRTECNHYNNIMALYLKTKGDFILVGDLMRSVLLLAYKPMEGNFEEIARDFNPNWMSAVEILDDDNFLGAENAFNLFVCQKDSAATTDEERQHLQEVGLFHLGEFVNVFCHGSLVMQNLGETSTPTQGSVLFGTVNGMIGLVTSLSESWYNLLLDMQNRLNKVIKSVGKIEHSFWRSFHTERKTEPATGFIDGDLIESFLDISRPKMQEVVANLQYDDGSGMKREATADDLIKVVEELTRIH
In short: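 Live cells expressing NanoLuc-CRBN with tracer and compound were incubated 2 h, then given Nano-Glo substrate plus extracellular NanoLuc inhibitor for 3 min at room temperature.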

Rec-1 = test: IC50 in MCL cell lines (Supplementary Table 2), Rec-1; details: for Cell Viability (%): Rec-1 cells, replicate wells
Jeko-1 = test: IC50 in MCL cell lines (Supplementary Table 2), Jeko-1; details: for Cell Viability (%): Jeko-1 cells, replicate wells
BTK = BTK (Homo sapiens, UniProt Q06187); test: In vitro BTK kinase assay (PhosphoSens); assay type: biochemical; set-up: purchased SignalChem B10-10H-10
Sequence of BTK (Q06187 whole entry): as the sequence (Q06187 whole entry, the tested form may be a part) above

CN(CCCNC(=O)CNc1cccc2c1C(=O)N(C1CCC(=O)NC1=O)C2=O)C(C)(C)C=C(C#N)C(=O)N1CCC[C@@H](n2nc(-c3ccc(Oc4ccccc4)cc3)c3c(N)ncnc32)C1 (stereo partly drawn) [RC-1]
Cell Viability (%) (Mino; 1.25E-06 M): 39.6721% and 39.1711% and 38.89%
Cell Viability (%) (Mino; 1.56E-07 M): 67.6678% and 68.2351% and 62.6329%
Cell Viability (%) (Mino; 2.50E-06 M): 36.14% and 35.6851% and 33.7887%
Cell Viability (%) (Mino; 3.13E-07 M): 53.7594% and 53.6077% and 49.7111%
Cell Viability (%) (Mino; 5.00E-06 M): 32.4512% and 31.601% and 30.272%
Cell Viability (%) (Mino; 6.25E-07 M): 49.0909% and 46.392% and 45.7071%
Cell Viability (%) (Mino; 7.81E-08 M): 89.7818% and 79.7053% and 78.5229%
pIC50 (Mino; Mino, triplicates): 6.40
Signal (full-length BTK protein; BTK_+DTT, compound concentration 0.00491 nM): 2.20E-05 and 2.17E-05
Signal (full-length BTK protein; BTK_+DTT, compound concentration 0.0147 nM): 1.92E-05 and 1.81E-05
Signal (full-length BTK protein; BTK_+DTT, compound concentration 0.0442 nM): 2.14E-05 and 1.73E-05
Signal (full-length BTK protein; BTK_+DTT, compound concentration 0.133 nM): 2.05E-05 and 2.18E-05
Signal (full-length BTK protein; BTK_+DTT, compound concentration 0.398 nM): 2.41E-05 and 2.16E-05
Signal (full-length BTK protein; BTK_+DTT, compound concentration 1.19 nM): 1.65E-05 and 1.58E-05
Signal (full-length BTK protein; BTK_+DTT, compound concentration 3.58 nM): 1.59E-05 and 1.74E-05
Signal (full-length BTK protein; BTK_+DTT, compound concentration 10.7 nM): 1.27E-05 and 1.43E-05
Signal (full-length BTK protein; BTK_+DTT, compound concentration 32.2 nM): 8.15E-06 and 9.04E-06
Signal (full-length BTK protein; BTK_+DTT, compound concentration 96.7 nM): 2.36E-06 and 3.19E-06
Signal (full-length BTK protein; BTK_+DTT, compound concentration 290 nM): 6.97E-07 and 7.79E-07
Signal (full-length BTK protein; BTK_-DTT, compound concentration 0.0152 nM): 1.51E-05 and 1.47E-05
Signal (full-length BTK protein; BTK_-DTT, compound concentration 0.0457 nM): 1.49E-05 and 1.51E-05
Signal (full-length BTK protein; BTK_-DTT, compound concentration 0.137 nM): 1.65E-05 and 2.03E-05
Signal (full-length BTK protein; BTK_-DTT, compound concentration 0.412 nM): 1.54E-05 and 1.43E-05
Signal (full-length BTK protein; BTK_-DTT, compound concentration 1.23 nM): 1.12E-05 and 1.17E-05
Signal (full-length BTK protein; BTK_-DTT, compound concentration 3.7 nM): 1.02E-05 and 1.17E-05
Signal (full-length BTK protein; BTK_-DTT, compound concentration 11.1 nM): 6.96E-06 and 6.70E-06
Signal (full-length BTK protein; BTK_-DTT, compound concentration 33.3 nM): 2.36E-06 and 3.11E-06
Signal (full-length BTK protein; BTK_-DTT, compound concentration 100 nM): 5.28E-07 and 7.20E-07
Signal (full-length BTK protein; BTK_-DTT, compound concentration 300 nM): 2.64E-07 and 1.61E-07
pKd (full-length BTK protein; full-length BTK, absence of DTT in the buffer, duplicates): 8.19
NanoBRET(%) (NanoLuc-CRBN fusion; 1.00E-05 M, triplicates): 21.6334% and 26.3618%
NanoBRET(%) (NanoLuc-CRBN fusion; 1.60E-08 M, triplicates): 89.0253% and 93.1823% and 91.5749%
NanoBRET(%) (NanoLuc-CRBN fusion; 3.20E-09 M, triplicates): 81.4353% and 98.6889%
NanoBRET(%) (NanoLuc-CRBN fusion; 4.00E-07 M, triplicates): 23.5104% and 43.7578% and 36.9762%
NanoBRET(%) (NanoLuc-CRBN fusion; 8.00E-08 M, triplicates): 72.3946% and 83.8988% and 65.1002%
pIC50 (NanoLuc-CRBN fusion; HEK-293 cells, CRBN tracer 0.5 µM, triplicates, read-out: CRBN target engagement IC50,TE): 6.60
K′P,D (relative intracellular accumulation coefficient) (NanoLuc-CRBN fusion; Kd (CRBN)/IC50,TE (CRBN)): 16.8
pIC50 (Rec-1; Rec-1, triplicates): 5.39
Cell Viability (%) (Rec-1; 1.25E-06 M): 86.4761% and 87.1335% and 88.5619%
Cell Viability (%) (Rec-1; 1.56E-07 M): 110.78% and 108.392% and 108.404%
Cell Viability (%) (Rec-1; 2.50E-06 M): 70.381% and 67.6766% and 67.9066%
Cell Viability (%) (Rec-1; 3.13E-07 M): 100.052% and 101.66% and 95.2827%
Cell Viability (%) (Rec-1; 5.00E-06 M): 39.6222% and 42.2011% and 40.0645%
Cell Viability (%) (Rec-1; 6.25E-07 M): 96.6812% and 94.3055% and 92.2914%
Cell Viability (%) (Rec-1; 7.81E-08 M): 102.045% and 105.031% and 106.253%
pIC50 (Jeko-1; Jeko-1, triplicates): 6.70
Cell Viability (%) (Jeko-1; 1.25E-06 M): 8.1% and 9.79% and 4.911%
Cell Viability (%) (Jeko-1; 1.56E-07 M): 59.0193% and 84.765% and 42.1211%
Cell Viability (%) (Jeko-1; 2.50E-06 M): 5.234% and 3.584% and 4.277%
Cell Viability (%) (Jeko-1; 3.13E-07 M): 35.9177% and 48.9386% and 32.3116%
Cell Viability (%) (Jeko-1; 5.00E-06 M): 6.285% and 4.711% and 5.303%
Cell Viability (%) (Jeko-1; 6.25E-07 M): 26.3007% and 22.6601% and 16.326%
Cell Viability (%) (Jeko-1; 7.81E-08 M): 58.1018% and 72.8615% and 48.2775%
pIC50 (BTK; AssayQuant BTK assay kit, 2.5 nM BTK, 1 mM ATP, duplicates, read-out: BTK inhibition IC50): 8.74
activity at 2.56 pM (BTK; Supplementary Figure 5, drug concentration 2.56 pM, replicates, read-out: Inhibition(%)): 87.3%
activity at 12.8 pM (BTK; Supplementary Figure 5, drug concentration 12.8 pM, replicates, read-out: Inhibition(%)): 93.2%
activity at 64 pM (BTK; Supplementary Figure 5, drug concentration 64 pM, replicates, read-out: Inhibition(%)): 89.4%
activity at 0.00032 µM (BTK; Supplementary Figure 5, drug concentration 320 pM, replicates, read-out: Inhibition(%)): 87.3%
activity at 0.0016 µM (BTK; Supplementary Figure 5, drug concentration 1600 pM, replicates, read-out: Inhibition(%)): 55%
activity at 0.008 µM (BTK; Supplementary Figure 5, drug concentration 8000 pM, replicates, read-out: Inhibition(%)): 8.41%
activity at 0.04 µM (BTK; Supplementary Figure 5, drug concentration 40000 pM, replicates, read-out: Inhibition(%)): 3.46%
activity at 0.2 µM (BTK; Supplementary Figure 5, drug concentration 200000 pM, replicates, read-out: Inhibition(%)): 2.91%
activity at 1 µM (BTK; Supplementary Figure 5, drug concentration 1000000 pM, replicates, read-out: Inhibition(%)): 2.99%
